These are literature values, as cited in patent publication US8889867B2, “Solid forms and process for preparing” (Corcept Therapeutics, Inc., priority 2009, dated 2014).

Data set [1] addresses glucocorticoid receptor (GR) (Homo sapiens, UniProt P04150). Conditions: Bertagna (1984).
The test system of data set [2] is patients with Cushing's syndrome.

glucocorticoid receptor (GR), sequence (P04150 whole entry): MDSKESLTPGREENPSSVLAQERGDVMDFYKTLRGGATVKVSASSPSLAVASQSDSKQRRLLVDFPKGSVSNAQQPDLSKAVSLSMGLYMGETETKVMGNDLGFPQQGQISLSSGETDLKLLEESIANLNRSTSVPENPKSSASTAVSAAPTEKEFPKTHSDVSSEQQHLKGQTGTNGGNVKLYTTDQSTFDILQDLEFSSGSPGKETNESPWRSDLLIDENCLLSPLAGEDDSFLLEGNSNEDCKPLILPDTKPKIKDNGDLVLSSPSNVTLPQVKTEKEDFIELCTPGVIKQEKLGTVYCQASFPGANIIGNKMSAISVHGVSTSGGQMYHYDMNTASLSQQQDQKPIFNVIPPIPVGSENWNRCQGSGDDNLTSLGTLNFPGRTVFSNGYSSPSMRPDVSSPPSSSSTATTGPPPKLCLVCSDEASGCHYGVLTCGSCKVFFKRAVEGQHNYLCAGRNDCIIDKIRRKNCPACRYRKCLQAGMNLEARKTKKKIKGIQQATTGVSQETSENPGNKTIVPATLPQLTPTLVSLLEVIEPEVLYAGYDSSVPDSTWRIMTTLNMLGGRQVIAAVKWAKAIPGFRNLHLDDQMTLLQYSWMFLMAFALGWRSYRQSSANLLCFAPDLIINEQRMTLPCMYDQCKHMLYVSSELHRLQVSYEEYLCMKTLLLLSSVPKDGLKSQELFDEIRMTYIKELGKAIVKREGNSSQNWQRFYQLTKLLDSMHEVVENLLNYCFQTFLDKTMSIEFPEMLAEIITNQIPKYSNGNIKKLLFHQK

Regarding `CC#C[C@]1(O)CC[C@H]2[C@@H]3CCC4=CC(=O)CCC4=C3[C@@H](c3ccc(N(C)C)cc3)C[C@@]21C` [mifepristone], the “anti-glucocorticoid effect in humans” value in data set [1] was “effective anti-glucocorticoid agent”. In data set [2] (400 to 800 mg per day, severe Cushing Syndrome due to adrenal cancers and ectopic ACTH secretion from lung cancer, Van der Lely (1991, 1993)), the “reversal of acute psychosis” value is recorded as “useful in rapidly reversing acute psychosis”. Also, the “patients' conditions, including psychiatric status” value in data set [2] (Cushing's syndrome patients, Chrousos (1989), Sartor (1996)) is listed as “improved the patients' conditions”.
